According to patent US20060216238A1, “Compositions and methods for targeting or imaging a tissue in a vertebrate subject” (priority 2005, published 2006):

Assays:
cowpea plants = assay: Infectivity of SGF- or SIF-treated CPMV on cowpea plants; set-up: species or system Vigna unguiculata; details: SGF 60 minutes or SIF 120 minutes, day 14 post-inoculation
Method: (§1) Stability of CPMV particles in simulated gastric conditions. Simulated gastric fluid (SGF) and simulated intestinal fluid (SIF) were prepared according to Takagi et al. Takagi et al., Biol. Pharm. Bull 26:969-973, 2003. Briefly, pepsin (3.8 mg; Sigma) was dissolved into 5 ml of gastric control fluid (2 mg/ml NaCl, pH 2.0). SIF was prepared by dissolving pancreatin, (10 mg/ml; Sigma) in intestinal control fluid (0.05 M […], pH 6.8). Both solutions were used within the same day. SGF (400 μl) was first incubated at 37° C. for 2 minutes before addition of CPMV (200 μg), giving a ratio of 10 U of pepsin activity/μg of CPMV. The tube contents were mixed by mild vortexing and the tube was immediately placed in a 37° C. water bath for time points ranging from 0-60 minutes, followed by neutralization with 70 μl of 200 mM sodium bicarbonate solution. Similarly, SIF was incubated at 37° C. for 2 minutes before addition of CPMV (200 μg) and the tube contents were placed in a 37° C. water bath for time points up to 120 minutes. Aliquots of virus exposed to SGF or SIF were mixed with 5 μl of NuPAGE 4× LDS-sample buffer, run on 4-12% SDS-PAGE gels, and stained with Simply Blue Safe Stain (Invitrogen). […]

[1] = RT-PCR detection of CPMV RNA in tissues of mice inoculated i.v.; details: for CPMV RNA detected in bone marrow, mice positive/examined / CPMV RNA detected in brain, mice positive/examined / CPMV RNA detected in duodenum, mice positive/examined / CPMV RNA detected in ileum, mice positive/examined / CPMV RNA detected in jejunum, mice positive/examined / CPMV RNA detected in kidney, mice positive/examined / CPMV RNA detected in liver, mice positive/examined / CPMV RNA detected in lung, mice positive/examined / CPMV RNA detected in spleen, mice positive/examined / CPMV RNA detected in stomach, mice positive/examined: i.v.
Flt-1 receptor (VEGFR1) = Flt-1 receptor (VEGFR1) (Homo sapiens, UniProt P17948); assay: Binding and competition assays using ELISA
[2] = Stability of CPMV particles in simulated gastric conditions (SGF, SIF); assay type: in vitro ADME
Method: as §1

Chain of Flt-1 receptor (VEGFR1) (P17948 27-1338): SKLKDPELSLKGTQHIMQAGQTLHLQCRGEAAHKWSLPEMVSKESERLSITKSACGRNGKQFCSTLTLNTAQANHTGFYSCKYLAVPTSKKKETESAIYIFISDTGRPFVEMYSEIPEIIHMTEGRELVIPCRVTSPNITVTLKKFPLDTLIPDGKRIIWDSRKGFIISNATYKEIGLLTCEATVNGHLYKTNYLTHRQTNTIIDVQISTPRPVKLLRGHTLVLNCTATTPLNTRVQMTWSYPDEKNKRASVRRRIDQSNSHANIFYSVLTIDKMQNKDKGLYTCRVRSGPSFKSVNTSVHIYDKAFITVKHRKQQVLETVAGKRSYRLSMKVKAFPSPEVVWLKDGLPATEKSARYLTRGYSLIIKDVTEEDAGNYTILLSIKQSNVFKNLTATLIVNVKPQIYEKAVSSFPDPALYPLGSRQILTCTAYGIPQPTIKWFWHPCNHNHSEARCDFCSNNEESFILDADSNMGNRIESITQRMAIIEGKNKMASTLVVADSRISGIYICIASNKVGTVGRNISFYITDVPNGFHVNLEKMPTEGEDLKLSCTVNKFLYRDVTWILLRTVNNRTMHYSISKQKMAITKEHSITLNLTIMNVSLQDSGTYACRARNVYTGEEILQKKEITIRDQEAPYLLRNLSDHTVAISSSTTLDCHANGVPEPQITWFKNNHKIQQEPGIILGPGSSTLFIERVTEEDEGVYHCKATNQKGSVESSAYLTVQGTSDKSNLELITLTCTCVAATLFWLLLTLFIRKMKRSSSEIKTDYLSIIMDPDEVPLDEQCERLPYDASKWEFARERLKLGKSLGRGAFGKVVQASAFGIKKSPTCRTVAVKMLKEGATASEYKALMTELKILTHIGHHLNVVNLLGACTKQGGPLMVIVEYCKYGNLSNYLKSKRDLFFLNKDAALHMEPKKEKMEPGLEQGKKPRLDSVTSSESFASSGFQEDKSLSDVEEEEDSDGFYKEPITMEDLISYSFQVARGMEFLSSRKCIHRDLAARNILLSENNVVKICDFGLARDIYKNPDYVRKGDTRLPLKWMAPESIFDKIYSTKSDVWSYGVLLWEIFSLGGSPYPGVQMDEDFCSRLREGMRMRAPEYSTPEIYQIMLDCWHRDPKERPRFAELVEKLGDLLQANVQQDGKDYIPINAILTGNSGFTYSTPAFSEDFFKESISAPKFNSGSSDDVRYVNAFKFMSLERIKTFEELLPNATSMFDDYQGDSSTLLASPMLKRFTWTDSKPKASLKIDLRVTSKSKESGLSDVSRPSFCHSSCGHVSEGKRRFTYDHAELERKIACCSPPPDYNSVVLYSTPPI

cowpea mosaic virus [CPMV]
remained intact: integrity on Coomassie-stained gel after SGF ([2]; SGF, pepsin pH 2.0, 37° C., 0-60 minutes) | integrity on Coomassie-stained gel after SIF ([2]; SIF, pancreatin pH 6.8, up to 120 minutes)
2/3: CPMV RNA detected in liver, mice positive/examined ([1]; D1, Non-perfused) | CPMV RNA detected in duodenum, mice positive/examined ([1]; D1, Perfused) | CPMV RNA detected in brain, mice positive/examined ([1]; D2, Perfused) | CPMV RNA detected in duodenum, mice positive/examined ([1]; D3, Non-perfused)
infectivity similar to untreated CPMV: infectivity on cowpea plants after SGF or SIF (cowpea plants)
did not show any detectable binding: binding to Flt-1 receptor in ELISA (Flt-1 receptor (VEGFR1))
not detected: CPMV RNA in any tissues examined ([1]; day 5 or day 7 post-inoculation)
3/3: CPMV RNA detected in bone marrow, mice positive/examined ([1]; D1, Non-perfused) | CPMV RNA detected in brain, mice positive/examined ([1]; D1, Non-perfused) | CPMV RNA detected in duodenum, mice positive/examined ([1]; D1, Non-perfused) | CPMV RNA detected in ileum, mice positive/examined ([1]; D1, Non-perfused) | CPMV RNA detected in jejunum, mice positive/examined ([1]; D1, Non-perfused) | CPMV RNA detected in kidney, mice positive/examined ([1]; D1, Non-perfused) | CPMV RNA detected in lung, mice positive/examined ([1]; D1, Non-perfused) | CPMV RNA detected in spleen, mice positive/examined ([1]; D1, Non-perfused) | CPMV RNA detected in stomach, mice positive/examined ([1]; D1, Non-perfused) | CPMV RNA detected in bone marrow, mice positive/examined ([1]; D1, Perfused) | CPMV RNA detected in brain, mice positive/examined ([1]; D1, Perfused) | CPMV RNA detected in ileum, mice positive/examined ([1]; D1, Perfused) | CPMV RNA detected in jejunum, mice positive/examined ([1]; D1, Perfused) | CPMV RNA detected in kidney, mice positive/examined ([1]; D1, Perfused) | CPMV RNA detected in liver, mice positive/examined ([1]; D1, Perfused) | CPMV RNA detected in lung, mice positive/examined ([1]; D1, Perfused) | CPMV RNA detected in spleen, mice positive/examined ([1]; D1, Perfused) | CPMV RNA detected in stomach, mice positive/examined ([1]; D1, Perfused) | CPMV RNA detected in bone marrow, mice positive/examined ([1]; D2, Non-perfused) | CPMV RNA detected in brain, mice positive/examined ([1]; D2, Non-perfused) | CPMV RNA detected in duodenum, mice positive/examined ([1]; D2, Non-perfused) | CPMV RNA detected in ileum, mice positive/examined ([1]; D2, Non-perfused) | CPMV RNA detected in jejunum, mice positive/examined ([1]; D2, Non-perfused) | CPMV RNA detected in kidney, mice positive/examined ([1]; D2, Non-perfused) | CPMV RNA detected in liver, mice positive/examined ([1]; D2, Non-perfused) | CPMV RNA detected in lung, mice positive/examined ([1]; D2, Non-perfused) | CPMV RNA detected in spleen, mice positive/examined ([1]; D2, Non-perfused) | CPMV RNA detected in stomach, mice positive/examined ([1]; D2, Non-perfused) | CPMV RNA detected in bone marrow, mice positive/examined ([1]; D2, Perfused) | CPMV RNA detected in duodenum, mice positive/examined ([1]; D2, Perfused) | CPMV RNA detected in ileum, mice positive/examined ([1]; D2, Perfused) | CPMV RNA detected in jejunum, mice positive/examined ([1]; D2, Perfused) | CPMV RNA detected in kidney, mice positive/examined ([1]; D2, Perfused) | CPMV RNA detected in liver, mice positive/examined ([1]; D2, Perfused) | CPMV RNA detected in lung, mice positive/examined ([1]; D2, Perfused) | CPMV RNA detected in spleen, mice positive/examined ([1]; D2, Perfused) | CPMV RNA detected in stomach, mice positive/examined ([1]; D2, Perfused) | CPMV RNA detected in bone marrow, mice positive/examined ([1]; D3, Non-perfused) | CPMV RNA detected in brain, mice positive/examined ([1]; D3, Non-perfused) | CPMV RNA detected in ileum, mice positive/examined ([1]; D3, Non-perfused) | CPMV RNA detected in jejunum, mice positive/examined ([1]; D3, Non-perfused) | CPMV RNA detected in kidney, mice positive/examined ([1]; D3, Non-perfused) | CPMV RNA detected in liver, mice positive/examined ([1]; D3, Non-perfused) | CPMV RNA detected in lung, mice positive/examined ([1]; D3, Non-perfused) | CPMV RNA detected in spleen, mice positive/examined ([1]; D3, Non-perfused) | CPMV RNA detected in bone marrow, mice positive/examined ([1]; D3, Perfused) | CPMV RNA detected in brain, mice positive/examined ([1]; D3, Perfused) | CPMV RNA detected in duodenum, mice positive/examined ([1]; D3, Perfused) | CPMV RNA detected in ileum, mice positive/examined ([1]; D3, Perfused) | CPMV RNA detected in jejunum, mice positive/examined ([1]; D3, Perfused) | CPMV RNA detected in kidney, mice positive/examined ([1]; D3, Perfused) | CPMV RNA detected in liver, mice positive/examined ([1]; D3, Perfused) | CPMV RNA detected in lung, mice positive/examined ([1]; D3, Perfused) | CPMV RNA detected in spleen, mice positive/examined ([1]; D3, Perfused) | CPMV RNA detected in stomach, mice positive/examined ([1]; D3, Perfused)
1/3: CPMV RNA detected in stomach, mice positive/examined ([1]; D3, Non-perfused)
